Data on 3 compounds can be found in paper PMC3827198, “Characterisation of AmphiAmR11, an Amphioxus (Branchiostoma floridae) D2-Dopamine-Like G Protein-Coupled Receptor” (PLoS ONE, 2013).

For one assay, the system named is CHO cell cyclic AMP. The assay is described as follows: CHO cell cyclic AMP level after forskolin. Format: cell-based, Chinese hamster. The following applies: 10 µM forskolin; basal 5.1 ± 1.7. As for the experimental part: cAMP levels in stably transfected CHO-K1 cells were determined as described previously, except 100 µM isobutylmethylxanthine (IBMX) was used. cAMP levels are represented as a percentage of basal samples unless otherwise stated. Student’s T-test (two-tailed and unpaired) was used to test for significance. Unless otherwise stated, all data are shown as mean ± SEM. Each data point plotted was the mean of data obtained from at least three experiments. Within each experiment three separate replicate wells were analysed for each condition and the cAMP assays on each of the wells was carried out in duplicate.
Forskolin was used both to increase basal cAMP levels to make it easier to detect increases and decreases in cAMP levels in the same experiments and also to potentiate responses to agonists to more accurately determine their threshold effects [see 22]. A non-saturating 10 µM concentration of forskolin was used. Basal levels of CHO cell cyclic AMP were 5.1 ± 1.7 pmoles / mg protein (n = 3) and these were raised to 1053.7 ± 4.8 pmoles / mg protein after exposure to 10 µM forskolin. Protein levels were determined using a Bradford assay.

For a further assay, the system named is D3-dopamine receptors. Further details: method as in PMID 10531409, PMID 9572301. The following applies: cited from earlier work.
A further assay concerns D2-dopamine receptors. Further details: method as in PMID 10531409, PMID 9572301. The following applies: cited from earlier work.
For assay [1], the system named is dopamine-induced ERK1/2 activation. The assay is described as follows: Effect of pertussis toxin and signalling inhibitors on agonist-induced ERK1/2 activation in AmphiAmR11-expressing CHO-K1 cells. Format: cell-based, Chinese hamster. The following applies: 10 µM inhibitor, 10 nM dopamine, 5 minutes. On the procedure:
Phospho-extracellular signal-related kinase (Phospho-ERK) levels were determined essentially as described previously. Minor modifications have been described. ERK1/2 phosphorylation levels were quantified by densitometry. The developed films were scanned in and analysed using the software program, Aida. The data generated by Aida was then processed using Microsoft Excel. Values for the kinase expression and activity levels were defined as 100% in the control samples. Student’s T-test (two-tailed and unpaired) was used to test for significance.
Figure 5 Effect of pertussis toxin and signalling inhibitors on dopamine-induced ERK1/2 activation in AmphiAmR11-expressing CHO-K1 cells. For the pertussis toxin experiment, AmphiAmR11-expressing CHO-K1 cells were pre-incubated with pertussis toxin (200 ng/ml) for 16 hours prior to serum-starvation for 2 hours in the absence of the toxin. Cells were then stimulated for 5 mins with 10 nM dopamine (open bar) or F-12 Hams control (black bar). For all other inhibitors, AmphiAmR11-expressing CHO-K1 cells were serum starved for 2 hours including incubation with 10 µM inhibitor or F-12 Hams control for the final 20 (AG1296 and AG1478) or 30 (PP2, LY294002, Ro31-8220, U0126, U73122 and U73343) minutes. Cells were then stimulated for 5 minutes with 10 nM dopamine […] in the presence of the inhibitor. Basal measurement in the absence of dopamine and inhibitor (first black bar) and the dopamine-only response in the absence of inhibitor (first open bar) are shown. (A) Representative blots from three or four independent experiments. […] Data are expressed as the mean + SEM. n = 3 - 4. DA, dopamine; PTX, pertussis toxin; Ro, Ro 31-8220; LY, LY294002.
Figure S3. Time courses for the effect of dopamine and tyramine on ERK1/2 phosphorylation in AmphiAmR11-expressing CHO-K1 cells. (A and B) AmphiAmR11-expressing CHO-K1 cells were serum-starved for 2 hours, prior to stimulation with tyramine or dopamine at the specified concentration for the specified length of time. Equal quantities of cell lysates were separated by SDS-PAGE and analysed for pERK or tERK by Western blotting. (C and D): AmphiAmR11-expressing CHO-K1 cells were incubated with pertussis toxin (200 ng/mL) for 16 hours followed by stimulation as described for Figures A and B. (A to D) Representative blot for each condition from three to four independent experiments. (E) Summary of the quantified blots. Data are expressed as the mean ± SEM. n = 3-4. PTX, pertussis toxin; Min, minutes.

The test system of assay [2] is OctβRs, CG6989, CG6919 and CG7078. Further details: method as in PMID 15998303. The following applies: cited from earlier work.
For assay [3], the target named is T1, AmphiAmR11 (Branchiostoma floridae, UniProt A0PF35). The assay is described as follows: Block of tyramine-induced inhibition of forskolin-stimulated cAMP levels in AmphiAmR11-expressing CHO-K1 cells. The format is cell-based. The following applies: 1 μM antagonist, 30 nM tyramine, 10 µM forskolin. For orientation: Changes in cAMP serve as a functional read-out for many G protein-coupled receptors.

For a further assay, the system named is AmphiAmR4. More on the design: method as in PMID 23183848. The following applies: cited from earlier work.
In assay [4] the target is T1, AmphiAmR11. The assay is described as follows: Block of dopamine-induced ERK1/2 activation in AmphiAmR11-expressing CHO-K1 cells by antagonists. The format is cell-based. The following applies: 1 µM antagonist, 10 nM dopamine, 5 min.
The target in assay [5] is T1, AmphiAmR11. The assay is described as follows: ERK1/2 phosphorylation in AmphiAmR11-expressing CHO-K1 cells (Western blotting). The following applies: 1 μM antagonist. Format: cell-based. (In general: A western blot detects proteins with antibodies after separation by electrophoresis.)

SMILES strings stand for the structures. Counter-ions that a name gives are not always drawn.

T1 sequence (A0PF35 entry or part of it): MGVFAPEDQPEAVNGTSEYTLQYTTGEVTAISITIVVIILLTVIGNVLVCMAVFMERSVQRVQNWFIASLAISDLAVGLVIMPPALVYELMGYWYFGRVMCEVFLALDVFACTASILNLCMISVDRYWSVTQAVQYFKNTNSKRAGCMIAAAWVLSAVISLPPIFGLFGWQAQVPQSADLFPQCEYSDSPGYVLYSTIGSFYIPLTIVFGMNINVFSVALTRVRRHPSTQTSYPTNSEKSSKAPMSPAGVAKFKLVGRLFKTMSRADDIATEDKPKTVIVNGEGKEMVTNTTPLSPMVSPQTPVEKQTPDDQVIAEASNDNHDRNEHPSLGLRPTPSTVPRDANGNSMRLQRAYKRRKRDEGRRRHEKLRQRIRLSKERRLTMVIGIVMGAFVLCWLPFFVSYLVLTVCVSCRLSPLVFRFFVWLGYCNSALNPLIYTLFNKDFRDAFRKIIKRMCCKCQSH

Take `C=C[C@@]1(C)CC(=O)[C@]2(O)[C@@]3(C)[C@@H](O)CCC(C)(C)[C@@H]3[C@H](O)[C@H](OC(C)=O)[C@@]2(C)O1` [forskolin, Forskolin]: the “CHO cell cyclic AMP level after exposure to forskolin” value in the assay with CHO cell cyclic AMP turned out to be 1053.7 ± 4.8 pmoles / mg protein.
In the case of `O=c1cc(N2CCOCC2)oc2c(-c3ccccc3)cccc12` [LY294002], the “Effect on D3-mediated ERK1/2 activation in CHO cells” value with D3-dopamine receptors was “partially reduce”. Further, the “Effect on D2-mediated ERK1/2 activation in CHO cells” value with D2-dopamine receptors is “partially reduce”. In addition, the “Effect of inhibitor on dopamine-induced ERK1/2 phosphorylation” value in [1] is recorded as “significantly reduced”.
For `Cc1ccc(N(CC2=NCCN2)c2cccc(O)c2)cc1` [phentolamine, phentolamine hydrochloride], the “Agonist properties at Drosophila OctβRs” value in assay [2] is listed as “agonist properties”. The “Block of tyramine-induced inhibition of forskolin-stimulated cAMP levels” value on AmphiAmR11 [3] is given as “fully block”. Besides, the “Agonist activity at AmphiAmR4” value in the assay on AmphiAmR4 was “agonist properties”. Further, the “Block of dopamine-induced ERK1/2 activation” value on AmphiAmR11 [4] was “fully block”. Moreover, the “Effect of antagonist on ERK1/2 phosphorylation in the absence of dopamine” value at AmphiAmR11 [5] is on record as “did not exhibit any agonistic properties”.
